Laboratory results as given in US20240409585A1, “MACROCYCLIC IMMUNOMODULATORS” (priority 2021, published 2024).
Numbered stars: 1 amine (or outer) side, 2 acyl side, 3 side chain; on linkers, the order of the positions; unused ones are H or OH. Bridge positions count the residues as written; N and C are the ends. Square brackets hold non-standard residues; d marks the D form. Peptide text beside a SMILES is read from it. * marks the point of attachment. ξ: configuration not given here. Bip = N[C@@H](Cc1ccc(-c2ccccc2)cc1)C(=O)O; Ala(2-furyl) = N[C@@H](Cc1ccco1)C(=O)O; Phe(3-Me) = Cc1cccc(C[C@H](N)C(=O)O)c1; dPhe(3-F) = N[C@H](Cc1cccc(F)c1)C(=O)O; 1Nal = N[C@@H](Cc1cccc2ccccc12)C(=O)O; Val(3-OH) = CC(C)(O)[C@H](N)C(=O)O; X49 = O=C(C(N[*:1])C1CCOCC1)[*:2]; 2Pal = N[C@@H](Cc1ccccn1)C(=O)O; 3Pal = N[C@@H](Cc1cccnc1)C(=O)O; Cha = N[C@@H](CC1CCCCC1)C(=O)O; Cit = NC(=O)NCCC[C@H](N)C(=O)O; Ile(3ξ) = CCC(C)[C@H](N)C(=O)O; aThr = C[C@H](O)[C@H](N)C(=O)O; Thr(3ξ) = CC(O)[C@H](N)C(=O)O; Carboxymethyl = O=C(O)C*; NMeA = CN[C@@H](C)C(=O)O; Dab = NCC[C@H](N)C(=O)O; Dap = NC[C@H](N)C(=O)O

Target: T1, PE-labeled human PD-L1-Ig binding to Jurkat cell line over-expressing human PD-1 (Jurkat-PD-1) (Homo sapiens, UniProt Q15116)
T1 construct: expressed in transfected cells; host or cells: Jurkat
Assay: Jurkat-PD-1 Cell Binding High-Content Screening Assay (CBA): Method 1
Details: Jurkat-hPD-1 cells, PE-labeled PD-L1-Ig 20 nM final; read-out: Jurkat HPDL1 PD1 IC50 (uM) (Method 1)

T1 sequence (Q15116 25-288): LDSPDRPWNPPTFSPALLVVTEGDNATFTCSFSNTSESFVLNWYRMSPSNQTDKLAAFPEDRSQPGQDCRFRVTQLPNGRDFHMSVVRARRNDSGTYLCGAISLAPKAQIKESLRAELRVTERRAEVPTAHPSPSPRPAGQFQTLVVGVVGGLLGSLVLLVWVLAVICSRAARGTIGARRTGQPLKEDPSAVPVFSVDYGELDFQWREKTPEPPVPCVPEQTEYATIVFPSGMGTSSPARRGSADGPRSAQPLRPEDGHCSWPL

With `CC(C)C[C@@H]1NC(=O)[C@H](CCCNC(=N)N)NC(=O)[C@@H](Cc2ccccc2)NC(=O)[C@H](C)N(C)C(=O)[C@H](CCCNC(=N)N)NC(=O)[C@H](Cc2ccc(-c3ccccc3)cc2)NC(=O)[C@H](C(C)C)NC(=O)[C@H](Cc2c[nH]c3ccccc23)NC(=O)[C@H](CC(=O)O)NC(=O)[C@H](Cc2ccc(O)cc2)NC(=O)[C@H](CC(N)=O)NC(=O)CSC[C@@H](C(=O)NCC(N)=O)NC(=O)[C@H](CO)NC(=O)[C@H](C(C)C)NC1=O` [Compound 1032] ({CH2CO}-NYDWV[Bip]R[NMeA][dF]RLVSCG-NH2; thioether N-14) as the compound, how does the IC50 read?
Its IC50 is 0.51 µM.

How did the IC50 turn out when `CCC(C)[C@@H]1NC(=O)[C@H](Cc2ccc(-c3ccccc3)cc2)NC(=O)[C@H](C(C)C)NC(=O)[C@H](Cc2cccc(C)c2)NC(=O)[C@H](CC(=O)O)NC(=O)[C@H](Cc2ccc(OCC(=O)O)cc2)NC(=O)[C@H](C(C)O)NC(=O)CSC[C@@H](C(=O)N[C@@H](CO)C(=O)O)NC(=O)[C@H](C(C)O)NC(=O)[C@H](C(C)C)NC(=O)[C@H](CC2CCCCC2)NC(=O)[C@H](CCN)NC(=O)[C@@H](CC(C)C)NC(=O)[C@H](C)N(C)C1=O` (stereo partly drawn) [Compound 2232] ({CH2CO}-[Thr(3ξ)]Y(Carboxymethyl)D[Phe(3-Me)]V[Bip][Ile(3ξ)][NMeA][dL][Dab][Cha]V[Thr(3ξ)]CS-OH; thioether N-14) was run?
The IC50 was 0.01 µM.

Which IC50 does the source give for `Cc1cccc(C[C@@H]2NC(=O)[C@H](CC(=O)O)NC(=O)[C@H](Cc3ccc(OCC(=O)O)cc3)NC(=O)[C@H](Cc3ccc(OCC(=O)O)cc3)NC(=O)CSC[C@@H](C(=O)N[C@@H](C)C(N)=O)NC(=O)[C@H]([C@H](C)O)NC(=O)[C@H](C(C)C)NC(=O)[C@H](CC(C)C)NC(=O)[C@H](CCN)NC(=O)[C@@H](CC(C)C)NC(=O)[C@H](C)N(C)C(=O)[C@H](C(C)C)NC(=O)[C@H](Cc3ccc(-c4ccccc4)cc3)NC(=O)[C@H](C(C)C)NC2=O)c1` [Compound 1578] ({CH2CO}-Y(Carboxymethyl)Y(Carboxymethyl)D[Phe(3-Me)]V[Bip]V[NMeA][dL][Dab]LV[aThr]CA-NH2; thioether N-14) here?
Its IC50 is 0.01 µM.

How did the IC50 turn out when `CC(C)C[C@@H]1NC(=O)[C@H](CCCNC(=N)N)NC(=O)[C@@H](Cc2cccc(F)c2)NC(=O)[C@H](C)N(C)C(=O)[C@H](CCCNC(=N)N)NC(=O)[C@H](Cc2ccc(-c3ccccc3)cc2)NC(=O)[C@H](C(C)C)NC(=O)[C@H](Cc2c[nH]c3ccccc23)NC(=O)[C@H](CC(=O)O)NC(=O)[C@H](Cc2ccc(O)cc2)NC(=O)[C@H](Cc2ccccc2)NC(=O)CSC[C@@H](C(=O)N[C@@H](C)C(N)=O)NC(=O)[C@H]([C@@H](C)O)NC(=O)[C@H](C(C)C)NC1=O` [Compound 1071] ({CH2CO}-FYDWV[Bip]R[NMeA][dPhe(3-F)]RLVTCA-NH2; thioether N-14) was run?
The IC50 was 0.13 µM.

How did the IC50 turn out when `CC(C)C[C@@H]1NC(=O)[C@H](CCCNC(=N)N)NC(=O)[C@H](Cc2cccc3ccccc23)NC(=O)[C@H](C)N(C)C(=O)[C@H](CCCNC(=N)N)NC(=O)[C@H](Cc2ccc(-c3ccccc3)cc2)NC(=O)[C@H](C(C)C)NC(=O)[C@H](Cc2c[nH]c3ccccc23)NC(=O)[C@H](CC(=O)O)NC(=O)[C@H](Cc2ccc(O)cc2)NC(=O)[C@H](CC(N)=O)NC(=O)CSC[C@@H](C(=O)N[C@@H](C)C(N)=O)NC(=O)[C@H]([C@@H](C)O)NC(=O)[C@H](C(C)C)NC1=O` [Compound 1185] ({CH2CO}-NYDWV[Bip]R[NMeA][1Nal]RLVTCA-NH2; thioether N-14) was run?
Its IC50 is 0.35 µM.

How did the IC50 turn out when `CC[C@H](C)[C@@H]1NC(=O)[C@H](Cc2ccc(-c3ccccc3)cc2)NC(=O)[C@H](C(C)C)NC(=O)[C@H](Cc2c[nH]c3ccccc23)NC(=O)[C@H](CC(=O)O)NC(=O)[C@H](Cc2ccc(O)cc2)NC(=O)[C@H](Cc2ccc(OCC(=O)O)cc2)NC(=O)CSC[C@@H](C(=O)N[C@@H](C)C(N)=O)NC(=O)[C@H]([C@@H](C)O)NC(=O)[C@H](C(C)C)NC(=O)[C@H](CC(C)C)NC(=O)[C@H](CCCNC(=N)N)NC(=O)[C@@H](CC(C)C)NC(=O)[C@H](C)N(C)C1=O` [Compound 1489] ({CH2CO}-Y(Carboxymethyl)YDWV[Bip]I[NMeA][dL]RLVTCA-NH2; thioether N-14) was run?
The IC50 was 0.04 µM.

For `CC(C)C[C@@H]1NC(=O)[C@H](CCN)NC(=O)[C@@H](CC(C)C)NC(=O)[C@H](C)N(C)C(=O)[C@H](CCCNC(=N)N)NC(=O)[C@H](Cc2ccc(-c3ccccc3)cc2)NC(=O)[C@H](C(C)C)NC(=O)[C@H](Cc2c[nH]c3ccccc23)NC(=O)[C@H](CC(=O)O)NC(=O)[C@H](Cc2ccc(OCC(=O)O)cc2)NC(=O)[C@H](Cc2cccnc2)NC(=O)CSC[C@@H](C(=O)N[C@@H](C)C(N)=O)NC(=O)[C@H]([C@@H](C)O)NC(=O)[C@H](C(C)C)NC1=O` [Compound 1158] ({CH2CO}-[3Pal]Y(Carboxymethyl)DWV[Bip]R[NMeA][dL][Dab]LVTCA-NH2; thioether N-14), which IC50 is on record?
Its IC50 is 0.03 µM.

With `CCC(C)[C@@H]1NC(=O)[C@H](Cc2ccc(-c3ccccc3)cc2)NC(=O)[C@H](C(C)C)NC(=O)[C@H](Cc2c[nH]c3ccccc23)NC(=O)[C@H](CC(=O)O)NC(=O)[C@H](Cc2ccc(O)cc2)NC(=O)[C@H](Cc2ccco2)NC(=O)CSC[C@@H](C(=O)NC(C(N)=O)C2CCOCC2)NC(=O)[C@H](C(C)O)NC(=O)[C@H](C(C)(C)O)NC(=O)[C@H](CC2CCCCC2)NC(=O)[C@H](CC(N)=O)NC(=O)[C@@H](CC(C)C)NC(=O)[C@H](C)N(C)C1=O` (stereo partly drawn) [Compound 2176] ({CH2CO}-[Ala(2-furyl)]YDWV[Bip][Ile(3ξ)][NMeA][dL]N[Cha][Val(3-OH)][Thr(3ξ)]C[X49]-NH2; thioether N-14) as the compound, how does the IC50 read?
Its IC50 is 0.19 µM.

How did the IC50 turn out when `CC(C)C[C@@H]1NC(=O)[C@H](CCN)NC(=O)[C@@H](CC(C)C)NC(=O)[C@H](C)N(C)C(=O)[C@H](CCCNC(N)=O)NC(=O)[C@H](Cc2ccc(-c3ccccc3)cc2)NC(=O)[C@H](C(C)C)NC(=O)[C@H](Cc2c[nH]c3ccccc23)NC(=O)[C@H](CC(=O)O)NC(=O)[C@H](Cc2ccccn2)NC(=O)[C@H](Cc2cccnc2)NC(=O)CSC[C@@H](C(=O)N[C@@H](C)C(N)=O)NC(=O)[C@H]([C@@H](C)O)NC(=O)[C@H](C(C)C)NC1=O` [Compound 1334] ({CH2CO}-[3Pal][2Pal]DWV[Bip][Cit][NMeA][dL][Dab]LVTCA-NH2; thioether N-14) was run?
Its IC50 is 0.63 µM.

With `CC[C@H](C)[C@@H]1NC(=O)[C@H](Cc2ccc(-c3ccccc3)cc2)NC(=O)[C@H](C(C)(C)O)NC(=O)[C@H](Cc2cccc(C)c2)NC(=O)[C@H](CC(=O)O)NC(=O)[C@H](Cc2ccc(O)cc2)NC(=O)[C@H](CC(N)=O)NC(=O)CSC[C@@H](C(=O)N[C@H](C)C(N)=O)NC(=O)[C@H]([C@@H](C)O)NC(=O)[C@H](C(C)C)NC(=O)[C@H](CC2CCCCC2)NC(=O)[C@H](CCN)NC(=O)[C@@H](CC(C)C)NC(=O)[C@H](C)N(C)C1=O` [Compound 1692] ({CH2CO}-NYD[Phe(3-Me)][Val(3-OH)][Bip]I[NMeA][dL][Dab][Cha]VTC[dA]-NH2; thioether N-14) as the compound, how does the IC50 read?
The IC50 was 0.08 µM.

For `CC(C)C[C@@H]1NC(=O)[C@H](CCN)NC(=O)[C@@H](CC(C)C)NC(=O)[C@H](C)N(C)C(=O)[C@H](C(C)C)NC(=O)[C@H](Cc2ccc(-c3ccccc3)cc2)NC(=O)[C@H](C(C)C)NC(=O)[C@H](Cc2c[nH]c3ccccc23)NC(=O)[C@H](CC(=O)O)NC(=O)[C@H](Cc2ccc(OCC(=O)O)cc2)NC(=O)[C@H](CN)NC(=O)CSC[C@@H](C(=O)N[C@@H](C)C(N)=O)NC(=O)[C@H]([C@@H](C)O)NC(=O)[C@H](C(C)C)NC1=O` [Compound 1447] ({CH2CO}-[Dap]Y(Carboxymethyl)DWV[Bip]V[NMeA][dL][Dab]LVTCA-NH2; thioether N-14), which IC50 is on record?
The IC50 was 0.03 µM.
